# Experimental data from US20120040956A1, “INHIBITORS OF HIF-1 PROTEIN ACCUMULATION” (INTERMED DISCOVERY GMBH, priority 2008, published 2012).
# Key:
# HUVEC [1] = experiment: Spheroid-based angiogenesis assay, Deferoxamine (hypoxia) induced HUVEC sprouting; format: cell-based, human
# Experimental: Prior application the stock solution [100 mM] of IMD-019064 was diluted 1:10 in DMSO and serially diluted in half logarithmic steps covering the concentration range from 10 mM to 1 μM using 100% DMSO. The final assay concentration ranged from 100 μM to 10 nM with a final DMSO concentration in the assay of 1%. The experiments were pursued in modification of the originally published protocol (Korff and Augustin: J Cell Sci 112: 3249-58, 1999). In brief, spheroids were prepared as described by Korff and Augustin: J Cell Biol 143: 1341-52, 1998) by pipetting 500 endothelial cells (EC) in a hanging drop on plastic dishes to allow overnight spheroid aggregation. 50 EC spheroids were then embedded in 0.9 ml of a 3D collagen matrix and pipetted into individual wells of a 24 well plate to allow polymerization.
# Plates were incubated at 37° C. for 24 hours and fixed by adding 4% paraformaldehyde. The cumulative sprout length of 10 randomly selected spheroids per data point was analyzed and the relative inhibition by the test compound determined. Fitting of IC50 curves and calculation of IC50 values was performed with GraphPad Prism 5.01. Sprouting intensity of EC and fibroblast spheroids was quantitated by an image analysis system using an inverted microscope and the digital imaging software Analysis 3.2 (Soft imaging system, Munster, Germany). In parallel NHDF (fibroblast) spheroids were embedded in a 3D collagen gel and treated for 24 h with different concentrations of IMD-019064. The cumulative sprout length of 10 randomly selected spheroids per data point was analyzed according to the procedure used for the HUVEC experiment.
# The same assays were performed with IMD-026260; IMD-026259; Sutent® (Sunitinib) and Sorafenib (Nexavar®) (see Table 3 for final compound concentrations).
# [2] = system: human vasculature (CD34 positive vessels) from transplanted HUVECs; experiment: Spheroid-based in vivo angiogenesis assay in SCID mice; conditions: 0.3 mg/ml p.o. every 3rd day, pvalue=0.0001
# Source text: Human endothelial cells (ECs; HUVECs) are applied subcutaneously in (n=10) SCID mice embedded in extracellular matrix components in the presence of smooth muscle cells (SMCs) and fibroblasts (NHDFs). The transplanted human ECs (EC spheroids in combination with ECs in suspension) form a complex and perfused three dimensional network of capillaries of human origin that is anastomosed (connected with) with the mouse vasculature and host (mouse) pericyte-covered. The quality of the newly formed vasculature is monitored by micro vessel density counting. Aim of the study is to investigate the anti-angiogenic potential of the test items in the spheroid-based in vivo angiogenesis assay. […]
# In the standard assay (with VEGF-A and FGF-2 stimulation and only ECs) the first perfused vessels are usually detected at day 4 to day 6. […]
# For histological examination of the human vasculature, paraffin sections (thickness=8-10 μm) were prepared from all plugs. Blood vessel formation was detected by staining the sections for human CD34 (NCL-END, Menarini, Berlin, Germany). Three sections per plug were analysed and three images were taken from each section at a magnification of 200× using the Eclipse TE2000-U microscope (Nikon, Kanagawa, Japan). The area analyzed per section (three images) was 0.44 mm^2. […]
# HUVEC [3] = experiment: Spheroid-based angiogenesis assay, VEGF-A induced HUVEC sprouting; format: cell-based, human
# Experimental: As described in Example 4 HUVEC spheroids were generated, cultivated and embedded in a 3D collagen gel and stimulated with Vascular Endothelial Growth Factor alpha [VEGF-A; 25 ng/ml] instead of deferoxamine. Cell spheroids were treated for 24 h with different concentrations of IMD-026259; IMD-026260; Sutent® (Sunitinib) and Sorafenib (Nexavar®) (in Molar [M], as indicated in Table 4; see also FIG. 14A).
# The cumulative sprout length of 10 randomly selected spheroids per data point was analyzed and the relative inhibition by the test compound determined. Fitting of IC50 curves and calculation of IC50 values was performed with GraphPad Prism® 5.01 (trademarked by GraphPad Software Inc.). […] Results from the examples described above are summarized in FIG. 14b IC50 values are given in nM for in vitro angiogenesis (HUVEC sprouting) studies after hypoxic or VEGF induction.
# IKKy/NEMO = experiment: Cellular protein translation in 293T cells (anti-IKKy/NEMO immunoblotting); format: cell-based, human; conditions: 100 nM, 10 h and 24 h
# Experimental: 293T cells were grown in the presence of the known translation inhibitor cycloheximide (10 μg/ml) and 100 nM of IMD-019064, IMD-026259 and IMD-026260 respectively. […] Cells were harvested after 10 h and 24 h and cell lysates were produced. Equal amounts of protein contained in the cell lysates were used for immunoblotting with anti-IKKy/NEMO antibodies as shown in FIG. 12. IKKy/NEMO is a constitutively expressed relatively labile protein. Thus successful inhibition of cellular protein translation should result in significant decline of anti-IKKy/NEMO signal.
smiles,measurement,setting,value
"CNCCOc1ccc2c(c1)OC1(c3ccc(Cl)cc3)C(c3ccccc3)CC(O)C21O (stereo not drawn) [IMD-026260, (1,3a,8b)-3a-(4-chlorophenyl)-6-(2-(methylamino)ethoxy)-3-phenyl-2,3,3a,8b-tetrahydro-1H-benzo[d]cyclopenta[b]furan-1,8b-diol]",IC50,"HUVEC [1]; Homo sapiens, HUVEC, Deferoxamine 100 μM, 24 hours, collagen matrix, read-out: IC50, hypoxia induced EC (HUVEC) sprouting",13 nM
same,difference in HUVEC and fibroblast sensitivity,HUVEC [1]; NHDF IC50 versus Deferoxamine-induced HUVEC IC50,greater than thirteen-fold
same,reduction of human vessel number compared to a vehicle control,[2],42%
same,IC50,"HUVEC [3]; Homo sapiens, HUVEC, VEGF-A 25 ng/ml, 24 h, read-out: IC50, VEGF-A induced sprouting of HUVEC spheroids",28 nM
same,inhibition of angiogenic sprouting in vitro (HUVEC sprouting),"HUVEC [3]; after hypoxic or VEGF induction, summary statement",potent inhibitors of angiogenic sprouting in vitro
same,anti-IKKy/NEMO signal (cellular protein translation),IKKy/NEMO,did not result in reduced anti-IKKy/NEMO signals
